Data from patent US20150190416A1, “FILAGGRIN PRODUCTION PROMOTER, THERAPEUTIC AGENT FOR DISEASES ASSOCIATED WITH REDUCTION IN PRODUCTION OF FILAGGRIN, AND METHOD FOR SCREENING FOR SAID THERAPEUTIC AGENT” (KYOTO UNIVERSITY, priority 2012, published 2015).

Experiments:
Format in all cases: cell-based, human
GPR142 [1] = experiment: G protein-coupled receptor (GPCR) array in NHEK cells, GPR142 (Example 3); details: Compound 1 1 μM, 3 days
Protocol: In this example, the expression-increasing effect of Compound 1 on a GPCR in NHEK cells was confirmed by using a GPCR array.
(§1) 1) 5×10^4 cells/well of NHEK cells (Invitrogen) were plated on a 24-well plate, and then 500 μl of a culture medium containing a medium for proliferating normal human epidermal keratinocytes (HuMedia-KG2, KURABO INDUSTRIES LTD.) supplemented with hEGF (0.1 ng/ml), insulin (10 μg/ml), hydrocortisone (0.5 μg/ml), gentamycin (50 μg/ml), amphotericin B (50 ng/ml), and bovine brain pituitary extract (BPE) (0.4%, v/v) were added to the plate, and the cells were cultured under the conditions of 37° C. and 5% CO2 for from 3 to 4 days until the 80 to 85% confluent state was achieved.
2) Next, a DMSO solution of Compound 1 was added to the medium at 1 μM per well, and culture was further conducted for 3 days without changing the medium. In addition, regarding the system to which only CaCl2 (1.5 mM in terms of Ca) as Ca was added and the system to which both Compound 1 and CaCl2 (1.5 mM in terms of Ca) as Ca were added, the culture was conducted in a similar manner for 3 days. As a control example, a solvent only (vehicle) was added.
3) An extraction reagent (TRIzol™, Invitrogen) was used, and according to the manufacturer's protocol, total RNA was extracted from each of cells treated in the step 2). A reverse transcriptase reagent (Prime Script™, Takara) was used, and according to the manufacturer's protocol, cDNA was prepared from the total RNA. Next, a TaqMan™ human GPCR array (AB 4365295, Applied Biosystems) was used, and the analysis was conducted by an ABI PRISM™ 7900HT gene analyzer (Applied Biosystems). The result of measurement was shown as the comparison of the cycle number (ΔCt value) to 18S ribosomal RNA as a control (comparative Ct method).

GPR142 mRNA = GPR142 mRNA expression in NHEK cells, real-time PCR (Example 4); details: Compound 1 1 μM, Ca 1.2 mM, 3 days, compared to the control
Protocol: In this example, the expression-inducing effects of Compound 1 on GPR142 mRNA and GPR22 mRNA in NHEK cells were confirmed.
as §1, with “plate. Then,” for “plate, and then”, “CO2.” for “CO2 for from 3 to 4 days until the 80 to 85% confluent state was achieved.”
2) After culture under the conditions of the step 1) for 1 day, the medium was exchanged for the culture medium of the step 1) to which a DMSO solution of Compound 1 was added at 1 μM per well every day and the culture was conducted for 3 days. […]
3) An extraction reagent (TRIzol™, Invitrogen) was used, and according to the manufacturer's protocol, total RNA was extracted from each of cells treated with the medicament. […] Next, real-time PCR was conducted by using the following primers and SYBR™ Premix Ex Taq (Takara) with a CFX96 real-time PCR instrument according to the manufacturer's protocol, and the amounts of GPR142mRNA and GPR22mRNA expression were measured. […]

GPR142 [2] = experiment: Blocking effect by GPR142 RNAi in NHEK cells (Examples 5 and 6); details: calcium priming, siRNA 50 nM, Compound 1 10 nM, 1 day
Protocol: In this example, it was confirmed that the expression-inducing effects of Compound 1 on GPR142 mRNA and FLG mRNA in NHEK cells were blocked by GPR142 RNAi.
as §1, with “plate. Then,” for “plate, and then”, “CO2.” for “CO2 for from 3 to 4 days until the 80 to 85% confluent state was achieved.”
2) After culture under the conditions of the step 1) for 1 day, the medium was exchanged for the culture medium of the step 1) to which CaCl2 (1.2 mM in terms of Ca) was further added as Ca, and culture was conducted under the conditions of 37° C. and 5% CO2. After culture for 1 day, the medium was exchanged for the same culture medium containing Ca, and culture was further conducted for 1 day.
3) The NHEK cells of the step 2) were transfected with 50 nM of siRNA per well of the 24-well plate by using a transfection reagent, Lipofectamine RNA Max (Invitrogen) according to the manufacturer's protocol.
The sequences of the used three kinds of GPR142 siRNAs and the sequences of the used control siRNAs (all the siRNAs are manufactured by Invitrogen) are described below.
4) After culture for 1 day after the transfection with siRNA in the step 3), the medium was exchanged for the culture medium of the step 1) to which a DMSO solution of Compound 1 was added at 10 nM per well, and culture was further conducted for 1 day. As a control, a solvent only (vehicle) was added.
(§2) 5) An extraction reagent (TRIzol™, Invitrogen) was used, and according to the manufacturer's protocol, total RNA was extracted from each of cells treated with the medicament. A reverse transcriptase reagent (Prime Script™, Takara) was used, and according to the manufacturer's protocol, cDNA was prepared from the total RNA. Next, real-time PCR was conducted by using the following primers and SYBR™ Premix Ex Taq (Takara) with a CFX96 real-time PCR instrument according to the manufacturer's protocol, and the amounts of GPR142 mRNA and FLG mRNA expression were measured. The result of measurement is shown as a GAPDH ratio.
In this example, it was confirmed that the expression-inducing effects of Compound 2 or 3 on GPR142 mRNA and FLG mRNA in NHEK cells were blocked by GPR142 RNAi.
NHEK cells were transfected in the same manner as in Example 5 except that, in the steps 1) to 3) of Example 5, two kinds of GPR142 siRNAs and two kinds of control siRNAs, i.e., GPR142-1 (#HSS139493) and GPR142-3 (#HSS179846) and Control-1 (LOW GC, #129350-200), and Control-3 (HIGH GC, #129350-400) were used as GPR142 siRNAs and control siRNAs, respectively. After culture for 1 day after the transfection was conducted in the same manner as in the step 4) of Example 5, the medium was exchanged for the culture medium to which each of a DMSO solution of Compound 1, a DMSO solution of Compound 2, or a methanol solution of Compound 3 was added at 10 nM per well, and culture was further conducted for 1 day. As a control, a solvent only (vehicle) was added. Regarding each of cells treated with the medicament, real-time PCR was conducted to measure the amounts of GPR142 mRNA and FLG mRNA in the same manner as in the step 5) of Example 5. The results of the measurement are shown as a GAPDH ratio.

GPR22 = experiment: Blocking effect by GPR22 RNAi in NHEK cells (Reference Example 1); details: calcium priming, siRNA 10 nM, Compound 1 10 nM, 1 day
Protocol: as §1, with “plate. Then,” for “plate, and then”, “CO2.” for “CO2 for from 3 to 4 days until the 80 to 85% confluent state was achieved.”
2) 1 day after the step 1), the medium was exchanged for the medium supplemented with calcium every day, and culture was conducted for 2 days (priming).
3) The NHEK cells of the step 2) were transfected with 10 nM of siRNA per well of the 24-well plate by using a transfection reagent, Lipofectamine RNA Max (Invitrogen) according to the manufacturer's protocol.
4) After culture for 1 day after the step 3), the medium was exchanged for a medium to which Compound 1 dissolved in DMSO was added at 10 nM per well on the 24-well plate, and culture was conducted for 1 day. As a control example, a solvent only (vehicle) was added.
as §2, with “Real-time” for “Next, real-time”, “using” for “using the following primers and”, “GPR22” for “GPR142”, “mRNA” for “mRNA expression”, “results” for “result”, “are” for “is”

SMILES: [Ca+2].[Cl-].[Cl-] [Calcium, CaCl2, reference compound]
- GPR142 mRNA expression (GPCR array), in words (GPR142 [1]; Ca 1.5 mM): induced GPR142 mRNA expression
- GPR142: cycle number (ΔCt value) to 18S ribosomal RNA (GPR142 [1]; CaCl2 1.5 mM in terms of Ca, control 29.2): −4.9
- GPR142 mRNA expression (GAPDH ratio) (GPR142 mRNA): GPR142 mRNA expression was induced
- FLG mRNA expression in the presence of GPR142 siRNA (GPR142 [2]): suppressed by GPR142 siRNA
- GPR142 mRNA expression in the presence of GPR142 siRNA (GPR142 [2]): suppressed by GPR142 siRNA
- FLG mRNA expression in the presence of GPR22 siRNA (GPR22): not suppressed
- GPR22 mRNA expression in the presence of GPR22 siRNA (GPR22): suppressed by GPR22 siRNA
